According to ChEMBL document CHEMBL5360604, “Novel Dihydroorotate Dehydrogenase Inhibitors for Treating Acute Myelogenous Leukemia” (ACS Med Chem Lett, 2023):

tested on: MOLM-13; test: Antiproliferative activity against human MOLM-13 cells assessed as reduction in cell viability incubated for 72 hrs by CellTiter-Glo assay; assay type: functional, cell-based; conditions: MOLM-13, 72 h

Q: Which IC50 does the source give for `Cc1cn(-c2cc(O[C@@H](C)C(F)(F)F)c(C(=O)Nc3c(C)n[nH]c3Cl)cc2F)nc1[C@@H](C)O` here?
A: 260 pM

Q: Which IC50 does the source give for `Cc1cn(-c2cc(O[C@@H](C)C(F)(F)F)c(C(=O)Nc3c(C)n[nH]c3Cl)cc2F)nc1C(C)(C)O` here?
A: 90 pM

Q: For `Cc1cn(-c2cc(O[C@@H](C)C(F)(F)F)c(C(=O)Nc3c(F)cccc3Cl)cc2F)nc1C(C)(C)O`, which IC50 is on record?
A: 70 pM

Q: Which IC50 does the source give for `Cc1cn(-c2cc(O[C@@H](C)C(F)(F)F)c(C(=O)Nc3c(F)cccc3Cl)cc2F)nc1[C@H](C)O` here?
A: 30 pM

Q: `Cc1cn(-c2cc(O[C@@H](C)C(F)(F)F)c(C(=O)Nc3c(F)cccc3Cl)cc2F)nc1[C@@H](C)O` was tested. Which IC50 did it give?
A: 80 pM

Q: With `Cc1cn(-c2cc(O[C@@H](C)C(F)(F)F)c(C(=O)Nc3c(C)n[nH]c3Cl)cc2F)nc1[C@H](C)O` as the compound, how does the IC50 read?
A: 210 pM
